Structures can show the parent of a compound that is named as a salt.
Experiments:
Assay type in all cases: biochemical
PIM-1 = PIM-1 (Homo sapiens, UniProt P11309); test: Enzyme PIM-1 Assay ([33P]ATP incorporation into PIM2tide, filter plate); settings: averaged IC50; 35 μM ATP, 7.5 μM PIM2tide, 0.25 nM PIM-1, 60 min at 22° C.
Method in brief: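 Ten-point, 3-fold dilution series (10 μM top, 2% DMSO final) tested for inhibition of 33P transfer from 35 μM ATP to 7.5 μM PIM2tide by 0.25 nM PIM-1. Reaction 60 min, 22 °C, pH 7.4 MOPS/MgCl2 buffer; phosphocellulose capture, scintillation counting, IC50 where fitted POC equals 50.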

recombinant rat PIM-3 = recombinant rat PIM-3 (Rattus norvegicus, UniProt O70444); test: PIM-3 Assay (as Example A); settings: averaged IC50; 30 μM ATP, 3.75 μM PIM2tide, 0.5 nM PIM-3
Method in brief: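 33P incorporation from 30 μM [γ-33P]ATP into 3.75 μM PIM2tide by 0.5 nM rat PIM-3, 60 min at 22 °C in pH 7.4 MOPS buffer, read by P81 filter capture and scintillation counting. Compounds tested in 3-fold dilutions up to 10 μM final, 2% DMSO; percent-of-control data fitted by 4-parameter logistic for IC50.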

[1] = molecular target: T1, GST-tagged recombinant full-length human Pim-2 (Homo sapiens, UniProt Q9P1W9); test: PIM-2 Assay (as Example A); settings: averaged IC50; 4 μM ATP, 1.0 μM PIM2tide, 1.5 nM Pim-2
T1 construct: GST-tagged recombinant full-length human Pim-2; GST
Method in brief: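 IC50 was derived by 4-parameter logistic fitting of percent-of-control data over a 10-point, 3-fold series (highest 10 μM, 2% DMSO). Reactions held 1.5 nM GST-Pim-2 (full-length, human), 4 μM [γ-33P]ATP and 1.0 μM PIM2tide for 60 min at 22 °C, pH 7.4; 33P-peptide captured on P81 filters.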

Sequence of PIM-1 (P11309 whole entry, species assumed): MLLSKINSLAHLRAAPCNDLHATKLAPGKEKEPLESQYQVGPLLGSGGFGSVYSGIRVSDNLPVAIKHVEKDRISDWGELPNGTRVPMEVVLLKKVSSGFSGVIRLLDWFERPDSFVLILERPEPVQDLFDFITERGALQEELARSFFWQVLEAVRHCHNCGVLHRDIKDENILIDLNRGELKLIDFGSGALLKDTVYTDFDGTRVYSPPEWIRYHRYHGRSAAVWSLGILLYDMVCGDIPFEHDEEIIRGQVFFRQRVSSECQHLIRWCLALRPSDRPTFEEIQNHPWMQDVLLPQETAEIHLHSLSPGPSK
T1 sequence (Q9P1W9 whole entry): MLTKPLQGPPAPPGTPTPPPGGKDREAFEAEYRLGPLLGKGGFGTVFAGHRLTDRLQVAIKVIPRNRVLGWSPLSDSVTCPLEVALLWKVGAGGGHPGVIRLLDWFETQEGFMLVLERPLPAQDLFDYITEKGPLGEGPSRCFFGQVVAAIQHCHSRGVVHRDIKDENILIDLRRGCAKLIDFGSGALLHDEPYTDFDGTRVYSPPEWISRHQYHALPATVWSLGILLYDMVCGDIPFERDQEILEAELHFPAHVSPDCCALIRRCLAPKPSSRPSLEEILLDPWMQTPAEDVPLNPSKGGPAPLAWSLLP

SMILES | IC50 (PIM-1) [nM] | IC50 (recombinant rat PIM-3) [nM] | IC50 [1] [nM]
CO[C@@H](C)COc1ccc2ccc(-c3nnc4ccc([C@H](N5CC[C@](C)(N)C5)C(F)(F)F)cn34)nc2c1 [Example 304, (S)-3-methyl-1-((S)-2,2,2-trifluoro-1-(3-(7-((S)-2-methoxypropoxy)quinolin-2-yl)-[1,2,4]triazolo[4,3-a]pyridin-6-yl)ethyl)pyrrolidin-3-amine] | 0.26 | 0.3 | 65.1
CO[C@H](C)COc1ccc2ccc(-c3nnc4ccc([C@H](N5CC[C@](C)(N)C5)C(F)(F)F)cn34)nc2c1 [Example 305, (S)-3-methyl-1-((S)-2,2,2-trifluoro-1-(3-(7-((R)-2-methoxypropoxy)quinolin-2-yl)-[1,2,4]triazolo[4,3-a]pyridin-6-yl)ethyl)pyrrolidin-3-amine] | 0.96 | 0.4 | 71
CCOCCOc1ccc2ccc(-c3nnc4ccc([C@H](N5CC[C@](C)(N)C5)C(F)(F)F)cn34)nc2c1 [Example 306, (S)-1-((S)-1-(3-(7-(2-ethoxyethoxy)quinolin-2-yl)-[1,2,4]triazolo[4,3-a]pyridin-6-yl)-2,2,2-trifluoroethyl)-3-methylpyrrolidin-3-amine] | 0.28 | 0.7 | 281
C[C@H](c1ccc2nnc(-c3ccc4cccc(C(C)(C)C)c4n3)n2c1)N1CC[C@H](N)C1 [Example 307, (S)-1-((R)-1-(3-(8-tert-butylquinolin-2-yl)-[1,2,4]triazolo[4,3-a]pyridin-6-yl)ethyl)pyrrolidin-3-amine trihydrochloride] | 1.64 | 6.9 | 62.4
C[C@@H](c1ccc2nnc(-c3ccc4cccc(C(C)(C)C)c4n3)n2c1)N1CC[C@H](N)C1 [Example 308, (S)-1-((S)-1-(3-(8-tert-butylquinolin-2-yl)-[1,2,4]triazolo[4,3-a]pyridin-6-yl)ethyl)pyrrolidin-3-amine trihydrochloride] | 0.17 | 0.4 | 29.4
CCOc1cc2nc(-c3nnc4ccc([C@@H](C)N5CC[C@H](N)C5)cn34)ccc2cc1F [Example 309, (S)-1-((R)-1-(3-(7-ethoxy-6-fluoroquinolin-2-yl)-[1,2,4]triazolo[4,3-a]pyridin-6-yl)ethyl)pyrrolidin-3-amine trihydrochloride] | 1.18 | 3 | 407
CCOc1cc2nc(-c3nnc4ccc([C@H](C)N5CC[C@H](N)C5)cn34)ccc2cc1F [Example 310, (S)-1-((S)-1-(3-(7-ethoxy-6-fluoroquinolin-2-yl)-[1,2,4]triazolo[4,3-a]pyridin-6-yl)ethyl)pyrrolidin-3-amine trihydrochloride] | 0.46 | 1.1 | 415
COc1ccc2ccc(-c3nnc4ccc([C@H](N5CC[C@](C)(N)C5)C(F)(F)F)cn34)nc2c1 [Example 312, (S)-3-methyl-1-((S)-2,2,2-trifluoro-1-(3-(7-methoxyquinolin-2-yl)-[1,2,4]triazolo[4,3-a]pyridin-6-yl)ethyl)pyrrolidin-3-amine] | 0.24 | 0.8 | 170
CC(C)Oc1ccc2ccc(-c3nnc4ccc([C@H](N5CC[C@](C)(N)C5)C(F)(F)F)cn34)nc2c1 [Example 314, (S)-3-methyl-1-((S)-2,2,2-trifluoro-1-(3-(7-isopropoxyquinolin-2-yl)-[1,2,4]triazolo[4,3-a]pyridin-6-yl)ethyl)pyrrolidin-3-amine] | 0.22 | 0.4 | 18.4
COC[C@@H](C)Oc1ccc2ccc(-c3nnc4ccc([C@H](N5CC[C@](C)(N)C5)C(F)(F)F)cn34)nc2c1 [Example 315, (S)-3-methyl-1-((S)-2,2,2-trifluoro-1-(3-(7-(((R)-1-methoxypropan-2-yl)oxy)quinolin-2-yl)-[1,2,4]triazolo[4,3-a]pyridin-6-yl)ethyl)pyrrolidin-3-amine] | 0.19 | 0.4 | 25.7

Continued, values first:

IC50 (PIM-1) [nM] | IC50 (recombinant rat PIM-3) [nM] | IC50 [1] [nM] | SMILES
0.48 | 2.8 | 764 | N[C@H]1CCN([C@H](c2ccc3nnc(-c4ccc5ccc(C6COC6)cc5n4)n3c2)C(F)(F)F)C1 [Example 316, (S)-1-((R)-2,2,2-trifluoro-1-(3-(7-(oxetan-3-yl)quinolin-2-yl)-[1,2,4]triazolo[4,3-a]pyridin-6-yl)ethyl)pyrrolidin-3-amine]
0.34 | 0.4 | 194 | C[C@]1(N)CCN([C@@H](c2ccc3nnc(-c4ccc5ccc(CCO)cc5n4)n3c2)C(F)(F)F)C1 [Example 317, 2-(2-(6-((S)-1-((S)-3-amino-3-methylpyrrolidin-1-yl)-2,2,2-trifluoroethyl)-[1,2,4]triazolo[4,3-a]pyridin-3-yl)quinolin-7-yl)ethanol]
0.94 | 0.8 | 218 | COCCOc1ccc2ccc(-c3nnc4ccc([C@@H](N5C[C@@H](N)[C@H](OC)C5)C(F)(F)F)cn34)nc2c1 [Example 318, (3R,4R)-4-methoxy-1-((R)-2,2,2-trifluoro-1-(3-(7-(2-methoxyethoxy)quinolin-2-yl)-[1,2,4]triazolo[4,3-a]pyridin-6-yl)ethyl)pyrrolidin-3-amine]
1.68 | 6.1 | 1820 | Cc1oc(=O)oc1COC(=O)N[C@H]1CCN([C@H](c2ccc3nnc(-c4ccc5cc(F)c(OCCO)cc5n4)n3c2)C(F)(F)F)C1 [Example 321, (5-methyl-2-oxo-1,3-dioxol-4-yl)methyl ((S)-1-((R)-2,2,2-trifluoro-1-(3-(6-fluoro-7-(2-hydroxyethoxy)quinolin-2-yl)-[1,2,4]triazolo[4,3-a]pyridin-6-yl)ethyl)pyrrolidin-3-yl)carbamate]
0.08 | 0.1 | 22.7 | CO[C@@H](C)COc1cc2nc(-c3nnc4ccc([C@H](N5CC[C@](C)(N)C5)C(F)(F)F)cn34)ccc2cc1F [Example 322, (S)-3-methyl-1-((S)-2,2,2-trifluoro-1-(3-(6-fluoro-7-((S)-2-methoxypropoxy)quinolin-2-yl)-[1,2,4]triazolo[4,3-a]pyridin-6-yl)ethyl)pyrrolidin-3-amine di-hydrochloride]
0.14 | 0.2 | 145 | CO[C@@H](C)COc1cc2nc(-c3nnc4ccc([C@@H](N5CC[C@H](N)C5)C(F)(F)F)cn34)ccc2cc1F [Example 323, (S)-1-((R)-2,2,2-trifluoro-1-(3-(6-fluoro-7-((S)-2-methoxypropoxy)quinolin-2-yl)-[1,2,4]triazolo[4,3-a]pyridin-6-yl)ethyl)pyrrolidin-3-amine di-hydrochloride]
0.18 | 0.21 | 44.6 | CO[C@H](C)COc1cc2nc(-c3nnc4ccc([C@H](N5CC[C@](C)(N)C5)C(F)(F)F)cn34)ccc2cc1F [Example 324, (S)-3-methyl-1-((S)-2,2,2-trifluoro-1-(3-(6-fluoro-7-((R)-2-methoxypropoxy)quinolin-2-yl)-[1,2,4]triazolo[4,3-a]pyridin-6-yl)ethyl)pyrrolidin-3-amine di-hydrochloride]

Source: patent US8889704B2 (Array BioPharma Inc., priority 2011, dated 2014)
